Among the data in patent publication US10800767B2, “Thyroid hormone receptor beta agonist compounds” (Terns, Inc., priority 2018, dated 2020) are EC50 and THRβ-Selectivity values, retold here.

One may read the EC50 as the concentration giving half of the maximal effect.

The structures appear in SMILES notation.

The target of experiment [1] is TR alpha-LBD (thyroid hormone receptor alpha) (Homo sapiens (Human), UniProt P10827). Description: LanthaScreen TR-FRET Thyroid Receptor alpha Coactivator Assay (agonist screening). Type of experiment: biochemical. Conditions: TR alpha-LBD 0.4 nM, 2 hour incubation, average of duplicate runs, read-out: EC50 THRα-FRET. The protocol: (§1) Example B1: Time-Resolved Fluorescence Resonance Energy Transfer (TR-FRET) Assay for Thyroid Hormone Receptor Agonist Screening
Chain of TR alpha-LBD (thyroid hormone receptor alpha) (P10827 other isoform, or with tags, fused parts or gaps del 1-162, other chains not shown): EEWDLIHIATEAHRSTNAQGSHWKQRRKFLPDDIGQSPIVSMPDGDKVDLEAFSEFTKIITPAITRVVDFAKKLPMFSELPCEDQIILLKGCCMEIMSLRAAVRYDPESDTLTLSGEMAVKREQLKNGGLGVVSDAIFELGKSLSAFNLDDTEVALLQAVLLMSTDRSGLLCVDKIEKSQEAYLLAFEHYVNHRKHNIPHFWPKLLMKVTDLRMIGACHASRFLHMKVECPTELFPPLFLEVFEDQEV
(§2) LanthaScreen™ TR-FRET Thyroid Receptor alpha Coactivator Assay kit (ThermoFisher) and LanthaScreen™ TR-FRET Thyroid Receptor beta Coactivator Assay kit (ThermoFisher) were used for agonist compound screening. Compounds in DMSO were diluted using ECHO Liquid Handler (Labcyte Inc.) into 384 plates in 10-point 3-fold series in duplicate (5 micro M final top concentration). Buffer C (ThermoFisher) was added to each well before the 4× mixture of fluorescein-SCR2-2 coactivator (200 nM final concentration), Terbium-labeled anti-GST antibody (2 nM final concentration), and TR alpha-LBD (0.4 nM final concentration) or TR beta-LBD (1.0 nM final concentration) was added. After 2 hour incubation at room temperature in dark, the TR-FRET signal was measured on an EnVision plate reader (PerkinElmer) with excitation at 340 nm and dual emission readout at 495 and 520 nm with the delay time of 100 micro second and the integration time of 200 micro second. The ratio of emission signal at 520 and at 495 was used to calculate EC50 using GraphPad Prism (GraphPad Software). In every batch of compound screening, T3 (L-3,3′,5-Triiodothyronine sodium salt, >95%) (Calbiochem) was used as reference compound. The EC50 of T3 measured were within 3-fold of the reference value provided by the assay kit manufacturer (ThermoFisher Scientific). The Z′ factors measured in every batch of screening using T3 as high percent effect (HPE) control and 0.5% DMSO as zero percent effect (ZPE) control were in the range of 0.5 to 0.8. Compounds' THR-beta selectivity values are derived from T3-selectivity normalized data.
Background: In TR-FRET formats the signal depends on donor and acceptor labels being close together.

In experiment [2] the target is TR beta-LBD (thyroid hormone receptor beta) (Homo sapiens (Human), UniProt P10828). Briefly: LanthaScreen TR-FRET Thyroid Receptor beta Coactivator Assay (agonist screening). Type of experiment: biochemical. The following applies: for THRβ-Selectivity: THR beta over THR alpha, derived from T3-selectivity normalized data; for EC50: TR-FRET coactivator assay, TR beta-LBD 1.0 nM, 2 hour incubation, average of duplicate runs, read-out: EC50 THRβ-FRET. As for the experimental part: as §1, §2
Chain of TR beta-LBD (thyroid hormone receptor beta) (P10828 217-461): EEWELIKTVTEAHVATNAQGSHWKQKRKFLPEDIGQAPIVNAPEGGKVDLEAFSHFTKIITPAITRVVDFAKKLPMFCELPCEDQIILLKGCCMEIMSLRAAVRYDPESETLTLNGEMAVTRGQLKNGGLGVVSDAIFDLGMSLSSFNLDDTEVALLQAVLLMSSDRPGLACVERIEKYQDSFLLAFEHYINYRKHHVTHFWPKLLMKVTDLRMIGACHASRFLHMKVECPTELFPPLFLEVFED

On to `CC(C)c1cc(C(=O)c2c(Cl)cc(NCc3noc(=O)[nH]3)cc2Cl)nn(C)c1=O` [Example 18, 3-(((3,5-dichloro-4-(5-isopropyl-1-methyl-6-oxo-1,6-dihydropyridazine-3-carbonyl)phenyl)amino)methyl)-1,2,4-oxadiazol-5(4H)-one], for which, in experiment [1], the EC50 was 550 nM. Further, in experiment [2], the THRβ-Selectivity is on record as 6.1 and the EC50 was found to be 271 nM.

Take `CC(C)c1cc(Cc2c(Cl)cc(NC(=O)c3noc(=O)[nH]3)cc2Cl)nn(C)c1=O` [Example 14, N-(3,5-dichloro-4-((5-isopropyl-1-methyl-6-oxo-1,6-dihydropyridazin-3-yl)methyl)phenyl)-5-oxo-4,5-dihydro-1,2,4-oxadiazole-3-carboxamide]: the concentration giving a half-maximal response (EC50) in experiment [1] came out at 549 nM. In experiment [2], the THRβ-Selectivity stood at 48 and the half-maximal effective concentration (EC50) was determined as 46.6 nM.

As to `O=C(Nc1cc(Cl)c(Cc2cc(C3CC3)c(=O)[nH]n2)c(Cl)c1)c1noc(=O)[nH]1` [Example 21, N-(3,5-dichloro-4-((5-cyclopropyl-6-oxo-1,6-dihydropyridazin-3-yl)methyl)phenyl)-5-oxo-4,5-dihydro-1,2,4-oxadiazole-3-carboxamide], the EC50 in experiment [1] was above 5000 nM. Further, in experiment [2], the THRβ-Selectivity was above 113 and the EC50 amounted to 180 nM.

As for `CC(C)c1cc(S(=O)(=O)c2c(Cl)cc(NCc3noc(=O)[nH]3)cc2Cl)nn(C)c1=O` [Example 19, 3-(((3,5-dichloro-4-((5-isopropyl-1-methyl-6-oxo-1,6-dihydropyridazin-3-yl)sulfonyl)phenyl)amino)methyl)-1,2,4-oxadiazol-5(4H)-one], the EC50 was 1930 nM in experiment [1] and above 5000 nM in experiment [2].
